# Results as given in patent EP4273147A1, “SUBSTITUTED SPIROLACTAMS, SALTS THEREOF AND THEIR USE AS HERBICIDALLY ACTIVE SUBSTANCES” (Bayer Aktiengesellschaft, priority 2022, dated 2023).
# Experiments:
# VERPE [1] = assay: Herbicidal pre-emergence action, section C (Table C11); assay type: in vivo, Veronica persica; details: visual grading after ca. 3 weeks
# ABUTH [2] = assay: Herbicidal post-emergence action (Table B1); assay type: in vivo, Abutilon theophrasti; details: treated at one-leaf stage, rated visually after about 3 weeks vs untreated controls (100% = plants have died, 0% = like control plants)
# How it was run: (§1)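 Visual rating against untreated plants (0% = as control, 100% = dead) made roughly 3 weeks after application. Weed species were grown in sandy loam pots under greenhouse conditions and sprayed at the one-leaf stage, 2–3 weeks post-sowing.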
# AMARE [3] = assay: Herbicidal post-emergence action (Table B11); assay type: in vivo, Amaranthus retroflexus; details: application rate 1280 g/ha
# How it was run: as §1
# ZEAMX [4] = assay: Pre-emergence effects on crop plants (Table D1); assay type: in vivo, Zea mays; details: crop plant; application rate 80 g/ha; visual grading after ca. 3 weeks
# Description: Seeds of mono- and dicotyledonous weed plants and crop plants were sown, in plastic or organic planting pots, in sandy loam and covered with soil. The compounds according to the invention, formulated in the form of wettable powders (WP) or as emulsifiable concentrates (EC), were applied to the surface of the covering soil as aqueous suspension or emulsion, with the addition of 0.5% of an additive, at an application rate of 600 1 of water/ha (converted).
# Following treatment, the pots were placed in a greenhouse and kept under optimum growth conditions for the test plants.
# VERPE [5] = assay: Herbicidal pre-emergence action (Table A11); assay type: in vivo, Veronica persica; details: application rate 1280 g/ha; visual grading after ca. 3 weeks
# How it was run: (§2)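 Two-species sowings per pot, mono- plus dicotyledonous weeds; soil type sandy loam, seed covered after sowing.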
# TRZAS [6] = assay: Post-emergence effects on crop plants (Table F2); assay type: in vivo, Triticum aestivum; details: application rate 320 g/ha, crop plant TRZAS
# Text: (§3) 2 to 3 weeks after sowing, the test plants were sprayed in the single-leaf stage.
# POAAN [7] = assay: Herbicidal pre-emergence action (Table A7); assay type: in vivo, Poa annua; details: application rate 320 g/ha; visual grading after ca. 3 weeks
# How it was run: as §2
# KCHSC [8] = assay: Herbicidal post-emergence action (Table B4); assay type: in vivo, Kochia scoparia; details: application rate 1280 g/ha; rated visually after about 3 weeks
# Description: (§4) Seeds of mono- and dicotyledonous weed plants were placed in plastic pots in sandy loam soil (doubly sown with in each case one species of mono- or dicotyledonous weed plants per pot), covered with soil and cultivated in a greenhouse under controlled growth conditions. 2 to 3 weeks after sowing, the test plants were treated at the one-leaf stage. […] After the test plants had been kept in the greenhouse under optimum growth conditions for about 3 weeks, the activity of the preparations was rated visually in comparison to untreated controls. For example, 100% activity = the plants have died, 0% activity = like control plants.
# ORYZA [9] = assay: Pre-emergence effects on crop plants (Table D3); details: crop plant; application rate 80 g/ha; visual grading after ca. 3 weeks
# POAAN [10] = assay: Herbicidal post-emergence action (Table B7); assay type: in vivo, Poa annua; details: application rate 1280 g/ha
# How it was run: as §1
# ECHCG [11] = assay: Herbicidal post-emergence action (Table B3); assay type: in vivo, Echinochloa crus-galli; details: rated visually after about 3 weeks
# How it was run: as §1
# AMARE [12] = assay: Herbicidal pre-emergence action (Table A8); assay type: in vivo, Amaranthus retroflexus; details: application rate 320 g/ha; visual grading after ca. 3 weeks vs untreated controls (100% = plants have died off, 0% = as control plants)
# How it was run: as §2
# SETVI [13] = assay: Herbicidal pre-emergence action, section C (Table C10); assay type: in vivo, Setaria viridis; details: application rate 320 g/ha; visual grading after ca. 3 weeks
# POLCO = assay: Herbicidal pre-emergence action, section C (Table C9); assay type: in vivo, Polygonum convolvulus; details: application rate 80 g/ha; visual grading after ca. 3 weeks
# ABUTH [14] = assay: Herbicidal pre-emergence action, section C (Table C1); assay type: in vivo, Abutilon theophrasti; details: application rate 80 g/ha; visual grading after ca. 3 weeks
# MATIN [15] = assay: Herbicidal pre-emergence action (Table A4); assay type: in vivo, Matricaria inodora; details: visual grading after ca. 3 weeks
# How it was run: as §2
# SETVI [16] = assay: Herbicidal pre-emergence action (Table A5); assay type: in vivo, Setaria viridis; details: visual grading after ca. 3 weeks
# How it was run: as §2
# MATIN [17] = assay: Herbicidal post-emergence action (Table B6); assay type: in vivo, Matricaria inodora; details: application rate 1280 g/ha; rated visually after about 3 weeks
# How it was run: as §1
# ABUTH [18] = assay: Herbicidal pre-emergence action (Table A1); assay type: in vivo, Abutilon theophrasti; details: visual grading after ca. 3 weeks vs untreated controls (100% = plants have died off, 0% = as control plants)
# How it was run: as §2
# KCHSC [19] = assay: Herbicidal pre-emergence action (Table A10); assay type: in vivo, Kochia scoparia; details: application rate 320 g/ha; visual grading after ca. 3 weeks
# How it was run: as §2
# ZEAMX [20] = assay: Post-emergence effects on crop plants (Table F1); assay type: in vivo, Zea mays; details: application rate 320 g/ha, crop plant ZEAMX
# Text: as §3
# ORYZA [21] = assay: Post-emergence effects on crop plants (Table F3); assay type: in vivo, Oryza sativa; details: application rate 320 g/ha, crop plant ORYZA
# Text: as §3
# VIOTR [22] = assay: Herbicidal pre-emergence action, section C (Table C12); assay type: in vivo, Viola tricolor; details: application rate 80 g/ha; visual grading after ca. 3 weeks
# STEME = assay: Herbicidal pre-emergence action (Table A6); assay type: in vivo, Stellaria media; details: application rate 320 g/ha; visual grading after ca. 3 weeks
# How it was run: as §2
# SETVI [23] = assay: Herbicidal post-emergence action (Table B8); assay type: in vivo, Setaria viridis
# How it was run: as §1
# ALOMY [24] = assay: Herbicidal pre-emergence action (Table A9); assay type: in vivo, Alopecurus myosuroides; details: application rate 1280 g/ha; visual grading after ca. 3 weeks
# How it was run: as §2
# LOLRI [25] = assay: Herbicidal pre-emergence action, section C (Table C7); assay type: in vivo, Lolium rigidum; details: application rate 320 g/ha; visual grading after ca. 3 weeks
# DIGSA [26] = assay: Herbicidal pre-emergence action, section C (Table C5); assay type: in vivo, Digitaria sanguinalis; details: application rate 80 g/ha; visual grading after ca. 3 weeks
# MATIN [27] = assay: Herbicidal pre-emergence action, section C (Table C8); assay type: in vivo, Matricaria inodora; details: application rate 320 g/ha; visual grading after ca. 3 weeks
# ALOMY [28] = assay: Herbicidal pre-emergence action, section C (Table C2); assay type: in vivo, Alopecurus myosuroides; details: visual grading after ca. 3 weeks
# Description: (§5) Seeds of mono- and dicotyledonous weed plants and crop plants were sown, in plastic or organic planting pots, in sandy loam and covered with soil. The compounds according to the invention, formulated in the form of wettable powders (WP) or as emulsifiable concentrates (EC), were applied to the surface of the covering soil as aqueous suspension or emulsion, with the addition of 0.5% of an additive, at an application rate of 600 1 of water/ha (converted). Following treatment, the pots were placed in a greenhouse and kept under optimum growth conditions for the test plants.
# GLXMA [29] = assay: Post-emergence effects on crop plants (Table F4); assay type: in vivo, Glycine max; details: crop plant GLXMA
# Text: as §3
# ECHCG [30] = assay: Herbicidal pre-emergence action (Table A2); assay type: in vivo, Echinochloa crus-galli; details: application rate 320 g/ha; visual grading after ca. 3 weeks
# How it was run: as §2
# VERPE [31] = assay: Herbicidal post-emergence action (Table B10); assay type: in vivo, Veronica persica; details: application rate 1280 g/ha
# How it was run: as §1
# AMARE [32] = assay: Herbicidal pre-emergence action, section C (Table C3); assay type: in vivo, Amaranthus retroflexus; details: application rate 320 g/ha; visual grading after ca. 3 weeks
# Description: as §5
# ECHCG [33] = assay: Herbicidal pre-emergence action, section C (Table C6); assay type: in vivo, Echinochloa crus-galli; details: application rate 80 g/ha; visual grading after ca. 3 weeks
# LOLRI [34] = assay: Herbicidal pre-emergence action (Table A3); assay type: in vivo, Lolium rigidum; details: application rate 320 g/ha; visual grading after ca. 3 weeks
# How it was run: as §2
# DIGSA [35] = assay: Herbicidal post-emergence action (Table B12); assay type: in vivo, Digitaria sanguinalis; details: application rate 1280 g/ha
# Description: as §4
# DIGSA [36] = assay: Herbicidal pre-emergence action (Table A12); assay type: in vivo, Digitaria sanguinalis; details: application rate 320 g/ha; visual grading after ca. 3 weeks
# How it was run: as §2
# VIOTR [37] = assay: Herbicidal post-emergence action, section E (Table E10); assay type: in vivo, Viola tricolor; details: application rate 320 g/ha; assessed visually after ca. 3 weeks
# Text: as §3
# LOLRI [38] = assay: Herbicidal post-emergence action (Table B5); assay type: in vivo, Lolium rigidum; details: application rate 1280 g/ha; rated visually after about 3 weeks
# How it was run: as §1
# VERPE [39] = assay: Herbicidal post-emergence action, section E (Table E9); assay type: in vivo, Veronica persica; details: application rate 320 g/ha; assessed visually after ca. 3 weeks
# Text: as §3
# TRZAS [40] = assay: Pre-emergence effects on crop plants (Table D2); assay type: in vivo, Triticum aestivum; details: crop plant; application rate 80 g/ha; visual grading after ca. 3 weeks
# ABUTH [41] = assay: Herbicidal post-emergence action, section E (Table E1); assay type: in vivo, Abutilon theophrasti; details: application rate 320 g/ha; assessed visually after ca. 3 weeks
# Text: as §3
# GLXMA [42] = assay: Pre-emergence effects on crop plants (Table D4); assay type: in vivo, Glycine max; details: crop plant; application rate 320 g/ha; visual grading after ca. 3 weeks
pre-emergence activity against ZEAMX (ZEAMX [4]) [%],pre-emergence activity against ORYZA (ORYZA [9]) [%],SMILES,pre-emergence activity against VERPE (VERPE [5]) [%],post-emergence activity against TRZAS (TRZAS [6]) [%],pre-emergence activity against POAAN (POAAN [7]) [%],pre-emergence activity against SETVI (SETVI [13]) [%],post-emergence activity against MATIN (MATIN [17]) [%],pre-emergence activity against KCHSC (KCHSC [19]) [%],post-emergence activity against ZEAMX (ZEAMX [20]) [%],post-emergence activity against ORYZA (ORYZA [21]) [%],pre-emergence activity against VIOTR (VIOTR [22]) [%],pre-emergence activity against STEME (STEME) [%],pre-emergence activity against ALOMY (ALOMY [24]) [%],pre-emergence activity against LOLRI (LOLRI [25]) [%],pre-emergence activity against DIGSA (DIGSA [26]) [%],pre-emergence activity against MATIN (MATIN [27]) [%],pre-emergence activity against ECHCG (ECHCG [30]) [%],pre-emergence activity against LOLRI (LOLRI [34]) [%],pre-emergence activity against DIGSA (DIGSA [36]) [%],further results
0,0,O=C1N(Cc2ccccc2F)CCCC12CCN(Cc1cccc(F)c1F)C2=O (racemic) [I-016],90,0,100,100,90,90,0,0,90,90,90,100,100,90,100,100,100,pre-emergence activity against VERPE (VERPE [1]; application rate 320 g/ha): 90%; post-emergence activity against ABUTH (ABUTH [2]; application rate 320 g/ha): 90%; post-emergence activity against AMARE (AMARE [3]): 90%; post-emergence activity against KCHSC (KCHSC [8]): 90%; post-emergence activity against POAAN (POAAN [10]): 90%; post-emergence activity against ECHCG (ECHCG [11]; application rate 320 g/ha): 90%; pre-emergence activity against AMARE (AMARE [12]): 90%; pre-emergence activity against POLCO (POLCO): 90%; pre-emergence activity against ABUTH (ABUTH [14]): 80%; pre-emergence activity against MATIN (MATIN [15]; application rate 320 g/ha): 90%; pre-emergence activity against SETVI (SETVI [16]; application rate 320 g/ha): 100%; pre-emergence activity against ABUTH (ABUTH [18]; application rate 320 g/ha): 90%; post-emergence activity against SETVI (SETVI [23]; application rate 320 g/ha): 90%; pre-emergence activity against ALOMY (ALOMY [28]; application rate 80 g/ha): 90%; post-emergence activity against GLXMA (GLXMA [29]; application rate 80 g/ha): 0%; post-emergence activity against VERPE (VERPE [31]): 90%; pre-emergence activity against AMARE (AMARE [32]): 90%; pre-emergence activity against ECHCG (ECHCG [33]): 100%; post-emergence activity against DIGSA (DIGSA [35]): 90%
0,0,O=C1N(Cc2c(F)cccc2F)CCCC12CCN(Cc1c(F)cccc1F)C2=O (racemic) [I-037],90,0,100,100,90,90,0,0,90,90,90,100,100,80,100,100,100,pre-emergence activity against VERPE (VERPE [1]; application rate 80 g/ha): 90%; post-emergence activity against ABUTH (ABUTH [2]; application rate 1280 g/ha): 90%; post-emergence activity against ECHCG (ECHCG [11]; application rate 1280 g/ha): 90%; pre-emergence activity against MATIN (MATIN [15]; application rate 1280 g/ha): 90%; pre-emergence activity against SETVI (SETVI [16]; application rate 1280 g/ha): 100%; pre-emergence activity against ABUTH (ABUTH [18]; application rate 1280 g/ha): 100%; post-emergence activity against VIOTR (VIOTR [37]): 80%; post-emergence activity against LOLRI (LOLRI [38]): 90%; post-emergence activity against SETVI (SETVI [23]; application rate 1280 g/ha): 90%; post-emergence activity against VERPE (VERPE [39]): 80%; pre-emergence activity against TRZAS (TRZAS [40]): 0%; post-emergence activity against ABUTH (ABUTH [41]): 80%; pre-emergence activity against ALOMY (ALOMY [28]; application rate 320 g/ha): 100%; post-emergence activity against GLXMA (GLXMA [29]; application rate 320 g/ha): 0%; pre-emergence activity against GLXMA (GLXMA [42]): 20%
